“And” between values parts separate entries of the source, which are not always exact repeats. Equal entries are not always repeated. Where two headings read alike, the source gives them in different places. Blank lines part the entries; values can stand above or below the compound they belong to.
What was measured:
[1] = rat
Experimental: (§1) Formulation of preparation and dosing: An appropriate amount of the test sample was precisely weighed, and mixed with an appropriate volume of a solvent to obtain a clear solution or a homogeneous suspension. The preparation was administered to animals within 4 hours after formulation. The dosage formulation would be administered by oral gavage in accordance with facility standard operating procedures. The dosage volume would be determined by the body weights of the animals collected on the morning of administering.
(§2) Blood collection: Blood (approx. 0.2 ml per point in time) would be acupunctured each time from the jugular vein of every animal into a polypropylene tube. All blood samples would be transferred to pre-cooled commercial EDTA-K2 test tubes, and kept on wet ice until they were centrifuged.
(§3) Plasma processing: Blood samples would be centrifuged (3200 rpm, 10 min) at approximately 4° C. Plasma was collected separately and transferred to pre-labeled PP tubes in wet ice at each point in time, and then immediately precipitated by ACN (6 IS) (the ratio of plasma: ACN was 1:4). Centrifugation (10 min, 12,000 rpm) was carried out again to obtain a supernatant. The supernatant was quickly frozen on dry ice and kept at −70±10° C. before LC/MS/MS analysis.
(§4) Liver processing: Liver tissues were collected at each point in time, washed twice with pre-cooled deionized water, and dried with filter paper. Liver tissues were immediately homogenized with 10-times volume of a methanol-water solution (1:2, v/v). After homogenization, a portion of liver tissue homogenate (e.g., 200 uL of homogenate) was immediately measured and delivered to an analyst. After precipitated on wet ice, the samples were centrifuged, and a supernatant was collected and stored in a refrigerator at −70±10° C. before LC-MS/MS analysis. From the remaining liver homogenate, 800 uL of the homogenate was measured as a spare.

[2] = Pharmacokinetic test: gavage to rats, active metabolites in plasma and liver by LC-MS/MS; conditions: for half-life: T1/2, rats; for half-life / Tlast: gavage of obeticholic acid
Experimental: as §1, §2, §3, §4

[3] = target: T1, farnesoid X receptor (FXR) (Homo sapiens, UniProt Q96RI1); conditions: reference literature: sandwich-cultured human hepatocytes; cited from earlier work
T1 sequence (Q96RI1 1-486): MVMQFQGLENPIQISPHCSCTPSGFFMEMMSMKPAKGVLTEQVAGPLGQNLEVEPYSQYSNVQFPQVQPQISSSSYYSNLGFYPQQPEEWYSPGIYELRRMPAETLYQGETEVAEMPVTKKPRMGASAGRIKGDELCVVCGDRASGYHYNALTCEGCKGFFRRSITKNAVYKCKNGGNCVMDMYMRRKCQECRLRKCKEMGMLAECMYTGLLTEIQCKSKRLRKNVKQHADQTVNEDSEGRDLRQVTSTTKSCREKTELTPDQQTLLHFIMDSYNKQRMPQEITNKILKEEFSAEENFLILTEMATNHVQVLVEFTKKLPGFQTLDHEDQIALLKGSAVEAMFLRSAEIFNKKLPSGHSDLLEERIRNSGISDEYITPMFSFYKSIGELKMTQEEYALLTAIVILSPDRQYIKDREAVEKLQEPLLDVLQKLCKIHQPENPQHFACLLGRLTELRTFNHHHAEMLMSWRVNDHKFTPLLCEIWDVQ

[4] = in vivo; conditions: rat, po
[5] = clinical treatment of liver diseases such as fatty liver; cited from earlier work
[6] = rat, plasma, po, 0.0576 mmol/kg

SMILES: CC[C@@H]1C2C[C@H](O)CC[C@]2(C)[C@H]2CC[C@]3(C)[C@@H]([C@H](C)CCC(=O)NCC(=O)OC(C)C)CC[C@H]3[C@@H]2[C@@H]1O (some centres unmarked) [Compound I-4]
In vivo active compounds in the rats after administration [1]: Compound 4
Total effective drug amount in the liver, compared with OCA ([1]; in vivo): significantly increased

SMILES: CCOC(=O)[C@@H](N)Cc1ccc(OC(=O)CNC(=O)CC[C@@H](C)[C@H]2CC[C@H]3[C@@H]4[C@H](O)[C@H](CC)C5C[C@H](O)CC[C@]5(C)[C@H]4CC[C@]23C)cc1 (some centres unmarked) [Compound I-6]
In vivo active compounds in the rats after administration [1]: Compound 4
Total effective drug amount in the liver, compared with OCA ([2]; rats, gavage, same molar dosage as OCA): significantly increased

SMILES: CC[C@H]1[C@@H](O)[C@@H]2[C@H](CC[C@]3(C)[C@@H]([C@H](C)CCC(=O)NCCS(=O)(=O)O)CC[C@@H]23)[C@@]2(C)CC[C@@H](O)C[C@@H]12 [OCA-Tau, reference compound]
Effect on activation of the farnesoid X receptor (FXR) activity, compared with obeticholic acid [3]: almost the same as the effect of the obeticholic acid

SMILES: CC[C@H]1[C@@H](O)[C@@H]2[C@H](CC[C@]3(C)[C@@H]([C@H](C)CCC(=O)NCC(=O)O)CC[C@@H]23)[C@@]2(C)CC[C@@H](O)C[C@@H]12 [Compound 4]
Effect on activation of the farnesoid X receptor (FXR) activity, compared with obeticholic acid [3]: almost the same as the effect of the obeticholic acid
Kp [4]: 14.7
AUC(0-inf) ([4]; 0.0576 mmol/kg): 7460 ng·h/mL
AUC(0-t) ([4]; 0.0576 mmol/kg): 7310 ng·h/mL
Cmax ([4]; 0.0576 mmol/kg): 788 ng/mL and 16800 ng/g
Tmax ([4]; 0.0576 mmol/kg): 4 h
MRT inf ([4]; 0.0576 mmol/kg, MRT0-inf): 6.1 h
MRT last ([4]; 0.0576 mmol/kg, MRT0-last): 5.56 h
half-life ([4]; 0.0576 mmol/kg, T1/2): 4.79 h
In vivo active compounds in the rats after administration [1]: Compound 4
Tlast ([1]; in vivo): 24.0 h
AUC0-last ([1]; in vivo, po): 107187 ng·h/g
AUC ratio of the obeticholic acid-glycine conjugate 4 in liver/plasma ([1]; in vivo, po): 14.7
AUC(0-inf) ([1]; in vivo, po): 110040 ng·h/g
Total AUC in plasma and liver ([1]; in vivo, po): 117503
Total AUC of the Compound 4 in the liver and plasma ([1]; in vivo, po): 117503
AUC Ratio (liver/plasma) ([1]; in vivo, po, 0.0576 mmol/kg): 42.3

SMILES: CC[C@@H]1C2C[C@H](O)CC[C@]2(C)[C@H]2CC[C@]3(C)[C@@H]([C@H](C)CCC(=O)NCC(=O)OCc4ccccc4)CC[C@H]3[C@@H]2[C@@H]1O (some centres unmarked) [Compound I-5]
In vivo active compounds in the rats after administration [1]: Compound 4
Decrease of AUC of the effective drug in the blood versus direct administration of OCA ([1]; in vivo): 84%
Increase of total AUC of Compound 4 in liver and plasma versus Compound 4 directly administered ([1]; in vivo): 28%
Total effective drug amount in the liver, compared with OCA ([1]; in vivo): significantly increased
AUC ratio of the obeticholic acid-glycine conjugate 4 in liver/plasma ([1]; in vivo, po): 18.7
Total AUC of the Compound 4 in the liver and plasma ([1]; in vivo, po): 150442

Kp ([2]; rat, liver and plasma (AUC ratio), po, 0.0576 mmol/kg): 0.663
Cmax ([2]; rat, liver, po, 0.0576 mmol/kg): 17900 ng/g
Tmax ([2]; rat, liver, po, 0.0576 mmol/kg): 0.5 h
half-life ([2]; rat, liver, po, 0.0576 mmol/kg, OCA in liver): 3.33 h
AUC(0-inf) [2, 6]: 50300 ng·h/mL
AUC(0-t) [2, 6]: 48100 ng·h/mL
Cmax [2, 6]: 24300 ng/mL
Tmax [2, 6]: 0.5 h
half-life ([2]; rat, plasma, po, 0.0576 mmol/kg, OCA in plasma): 4.35 h
Tlast ([2]; rats, 0.0576 mmol/kg, OCA in liver): 24.0 h
Tlast ([2]; rats, 0.0576 mmol/kg, OCA in plasma): 24.0 h
SMILES: CC[C@H]1[C@@H](O)[C@@H]2[C@H](CC[C@]3(C)[C@@H]([C@H](C)CCC(=O)O)CC[C@@H]23)[C@@]2(C)CC[C@@H](O)C[C@@H]12 [OCA, 6-α-ethylchenodeoxycholic acid]
Incidence of pruritus [5]: 63%
Incidence of rash [5]: up to 32%
